In ChEMBL document CHEMBL1133781, “High-pressure synthesis of enantiomerically pure C-6 substituted pyrazol” (Bioorg Med Chem Lett, 2001):

Assays:
[1] = target: Adenosine receptor A2a (Rattus norvegicus, UniProt P30543); experiment: Displacement of [3H]CGS-21680 (Kd, 14.9 nM) from A2A receptor in rat striatal membranes; assay type: cell membranes, Membrane
[2] = target: T1, Adenosine receptor A1 (Rattus norvegicus, UniProt P25099); experiment: Displacement of [3H]N6-PIA (Kd, 1 nM) binding from Adenosine A1 receptor in whole rat brain membranes; assay type: cell membranes
T1 sequence (P25099 whole entry): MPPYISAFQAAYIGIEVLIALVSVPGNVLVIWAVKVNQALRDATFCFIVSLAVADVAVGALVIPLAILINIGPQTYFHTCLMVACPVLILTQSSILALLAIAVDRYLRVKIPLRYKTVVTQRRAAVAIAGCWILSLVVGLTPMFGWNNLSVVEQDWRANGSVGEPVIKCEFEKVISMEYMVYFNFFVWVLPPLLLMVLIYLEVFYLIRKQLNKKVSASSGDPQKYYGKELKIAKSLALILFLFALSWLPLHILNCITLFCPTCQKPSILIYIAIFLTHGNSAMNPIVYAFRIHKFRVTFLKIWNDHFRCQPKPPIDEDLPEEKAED

Chain of Adenosine receptor A2a (P30543 whole entry): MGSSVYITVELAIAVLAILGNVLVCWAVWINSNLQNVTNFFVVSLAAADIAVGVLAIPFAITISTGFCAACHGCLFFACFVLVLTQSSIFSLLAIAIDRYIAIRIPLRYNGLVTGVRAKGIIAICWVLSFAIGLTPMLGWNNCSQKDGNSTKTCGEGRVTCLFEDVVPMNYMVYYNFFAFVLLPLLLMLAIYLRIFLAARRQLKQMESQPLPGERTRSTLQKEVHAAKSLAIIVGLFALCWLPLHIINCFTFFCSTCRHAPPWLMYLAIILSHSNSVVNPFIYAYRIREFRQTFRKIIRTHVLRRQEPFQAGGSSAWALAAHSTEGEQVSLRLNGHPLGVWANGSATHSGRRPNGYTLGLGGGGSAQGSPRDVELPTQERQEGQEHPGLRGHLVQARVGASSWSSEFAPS

| SMILES | Ki [1] [nM] | Ki [2] [nM] |
| --- | --- | --- |
| C[C@@H](Nc1nc(N)c2cnn(-c3ccccc3)c2n1)C(N)=O | 2120 | 486 |
| C[C@H](Nc1nc(N)c2cnn(-c3ccccc3)c2n1)C(N)=O | 648 | 49.1 |
| CC(Nc1nc(N)c2cnn(-c3ccccc3)c2n1)C(N)=O (racemic) | 930 | 84 |
